The text below walks through data of publication PMC7459823, “Characterization of Five Novel Anti-MRSA Compounds Identified Using a Whole-Animal Caenorhabditis elegans/Galleria mellonella Sequential-Screening Approach” (Antibiotics, 2020).

Values after ≈ are worked out from the molar mass of the structure shown. Read-outs that look alike come from different tables or passages of the source.

One data set concerns A549. In words: MTT cytotoxicity, A549. The settings on record: A549, 24 hr.
The subject of another data set is Klebsiella pneumoniae. As to the kind of experiment: Broth microdilution MIC, Klebsiella pneumoniae. It counts as cell-based. On the procedure: (§1) In vitro antibacterial activities were determined using the broth microdilution method. Assays were performed as described in Clinical and Laboratory Standards Institute protocols in triplicate using cation-adjusted Muller–Hinton broth (Becton Dickinson and Company, Franklin Lakes, NJ, USA) in 96-well plates with a total assay volume of 100 µL. Two-fold serial dilutions of test compounds were prepared over the concentration range of 1–64 µg/mL. The bacterial concentration was adjusted to OD600 = 0.06. […] A 10 µL aliquot from each well in the MIC assays was plated onto Muller–Hinton agar (Becton Dickinson and Company, Franklin Lakes, NJ, USA) and incubated overnight at 37 °C. The lowest concentration of compound for which no growth was observed on agar plates was reported as the minimal bactericidal concentration (MBC).
(In broth dilution the organism is exposed to a series of concentrations in liquid medium.)

In a further data set the test system is MRSA-MW2. In words: Checkerboard synergy assay (FIC index). The settings on record: synergy FIC ≤ 0.5. It counts as cell-based, Staphylococcus aureus. The procedure: The combination of two antibiotics with different modes of action can reduce bacterial resistance and sometimes even restore clinical efficacy of an antibiotic that has lost effectiveness. The five compounds were tested against MRSA-MW2 in the presence of five clinical antibiotics from different classes (i.e., polymyxin B, gentamycin, erythromycin, doxycycline, and oxacillin).
Antibacterial synergy for combinations of the compounds with each other and with clinical antibiotics (doxycycline, gentamicin, polymyxin-B, oxacillin, and erythromycin) was measured using checkerboard assays. In short, Cultures of MRSA-MW2 were adjusted to OD600 = 0.06 and one compound was arrayed horizontally and other vertically in 96 well plates. The assays were carried out in triplicate, exactly as described for the antibacterial susceptibility assays. The inhibitory effects of compound combinations were evaluated using the Fractional Inhibitory Concentration (FIC) index, derived from the formula:FIC index = FICA + FICB = [A]/MICA + [B]/MICB
MIC of substance A tested in combination /MIC of substance A tested alone + MIC of substance B tested in combination/MIC of substance B tested alone. Synergy is indicated when FIC ≤ 0.5, indifference when 0.5 ≤ FIC ≤ 4, and antagonism when FIC > 4. Experiments were performed in duplicate and report the average FIC index.

The next data set relates to Pseudomonas aeruginosa. As to the kind of experiment: Broth microdilution MIC, Pseudomonas aeruginosa. The class given is cell-based. The procedure: as §1
The test system of data set [1] is MRSA MW2. In words: Broth microdilution antibacterial susceptibility (MIC/MBC), MRSA MW2. The class given is cell-based, Staphylococcus aureus. On the procedure: as §1
For data set [2], the system named is clinical S. aureus isolate BF2. As to the kind of experiment: Broth microdilution MIC, clinical S. aureus isolate BF2. It counts as cell-based. The settings on record: Staphylococcus aureus. On the procedure: as §1
The test system of data set [3] is MRSA MW2 infection of Galleria mellonella larvae. As to the kind of experiment: G. mellonella–MRSA survival assay. The class given is in vivo. The conditions noted are these: larvae infected with MRSA MW2 5 × 10^5 CFU, compound 10 mg/kg 2 h after infection, monitored 120 h; untreated 1 day. On the procedure:
Larvae were infected with MRSA MW2 (5 × 10^5 CFU) in the left rear proleg, and after two hours, the compounds were introduced separately at 10 mg/kg into the right rear proleg and larvae survival was monitored for 120 h.
Assays were performed as described previously. Briefly, sixteen randomly selected G. mellonella larvae (Vanderhorst, Inc., St. Mary’s, OH, USA) between 300–350 mg were used for each test group. MRSA-MW2 was grown in Tryptic Soy Broth (TSB), washed with phosphate buffered saline (PBS, pH = 7.4), and diluted to OD600 = 0.3 before inoculation into G. mellonella larvae. A 10-μL inoculum was injected into the last left proleg using a 10-μL Hamilton syringe. After 2 h, compounds were administered into the last right proleg and larvae were incubated at 37 °C. G.mellonella survival was monitored for 120 h, and death was confirmed when there was no response. Killing curves and differences in survival were analyzed by the Kaplan–Meier method using GraphPad Prism version 8 (GraphPad Software, La Jolla, CA, USA). Statistical analysis (Kruskal–Wallis test) was carried out using the same program.

In another data set the test system is Enterobactor aerogens. In words: Broth microdilution MIC, Enterobactor aerogens. The class given is cell-based. The procedure: as §1
Data set [4] concerns MRSA-MW2 infection of C. elegans. In words: C. elegans–MRSA-MW2 high-throughput screen (Z-score, alive versus dead worms). The class given is in vivo, Caenorhabditis elegans. The conditions noted are these: screening concentration 2.86 µg/mL, hits Z > 2. From the text:
The five compounds: (4,4′,4″-(4-propyl-[1H]-pyrazole-1,3,5-triyl)trisphenol, PPT; (1S,2S)-2-[2-[[3-(1H-benzimidazol-2-yl)propyl]methylamino]ethyl]-6-fluoro-1,2,3,4-tetrahydro-1-(1-methylethyl)-2- naphthalenyl cyclopropanecarboxylate dihydrochloride, NNC; 4,5,6,7-tetrabromobenzotriazole, TBB; 3-[2-[2-chloro-4-[3-(2,6-dichlorophenyl)-5-(1-methylethyl)-4-isoxazolyl]methoxy]phenyl] ethenyl] benzoic acid, GW4064; and N-(cyclopropylmethoxy)-3,4,5-trifluoro-2-[(4-iodo-2-methylphenyl)amino] benzamide, PD198306) were purchased from Tocris Bioscience at the following levels of purity: PPT: >99.7%, NNC: >98%, TBB: >99%, GW4064: >97%, and PD198306: 98.8%. […] Hits were identified based on Z-scores. Z-scores are calculated from the ratio of alive versus dead worms after treatment with test compounds and represents the number of standard deviations (SD) the test compound differs from the mean using the formula Z = (x − μ)/σ; where x is the raw sample score, μ is the mean of the population and σ is the standard deviation of the population. Samples with Z > 2σ are considered hits.

In the next data set the test system is Enterococcus faecium. In words: Broth microdilution MIC, Enterococcus faecium. It counts as cell-based. The procedure:
as §1

For data set [5], the system named is clinical S. aureus isolate BF4. As to the kind of experiment: Broth microdilution MIC, clinical S. aureus isolate BF4. The conditions noted are these: Staphylococcus aureus. It counts as cell-based. The procedure: as §1
The test system of the next data set is Acinetobacter baumannii. In words: Broth microdilution MIC, Acinetobacter baumannii. The class given is cell-based. On the procedure: as §1
Data set [6] deals with clinical S. aureus isolate BF1. In words: Broth microdilution MIC, clinical S. aureus isolate BF1. It counts as cell-based. The settings on record: Staphylococcus aureus. The procedure:
as §1

For the next data set, the system named is MKN-28. In words: MTT cytotoxicity, MKN-28. The settings on record: MKN-28, 24 hr.
The subject of data set [7] is clinical S. aureus isolate BF3. In words: Broth microdilution MIC, clinical S. aureus isolate BF3. The class given is cell-based. The conditions noted are these: Staphylococcus aureus. The procedure: as §1
The next data set concerns HepG2. In words: MTT cytotoxicity, HepG2. The settings on record: HepG2, 24 hr.
For data set [8], the system named is MRSA MW2. As to the kind of experiment: Sytox green membrane permeabilization. The class given is cell-based, Staphylococcus aureus. The settings on record: compounds at 64 µg/mL, monitored over 1 h. On the procedure:
To determine whether the compounds target bacterial membranes, MRSA MW2 was treated with the compounds and uptake of the membrane-impermeable DNA-binding fluorescent dye Sytox green was monitored over 1 h (Figure 4).
Sytox Green (Life Technologies, Needham, MA, USA) membrane permeabilization assays were performed as previously described. The experiments were carried out in duplicate in 96-well plates. Cells were grown to log phase and were harvested by centrifuging at 3700× g for 5 min. The cells were washed twice with PBS and resuspended to OD600 = 0.2, following which 5 µM Sytox green was added to the cells and the bacteria-dye mixture were incubated in the dark for 30 mins.
Cell suspensions (50 µL) were added to 50 µL of test compounds (64 µg/mL in PBS) and fluorescence intensity was measured (excitation 485 nm, emission 530 nm) periodically over 60 min.

Setting [9] is: Staphylococcus aureus, MRSA MW2, 18 h, 37 °C, read-out: MIC.
Setting [10] is: Staphylococcus aureus, MRSA MW2, read-out: MBC.
[11] abbreviates: Staphylococcus aureus, stated in text across MRSA MW2 and four clinical S. aureus isolates, read-out: MIC against MRSA MW2 and the clinical isolates.
The mark [12] stands for this setting: Enterobactor aerogens, read-out: MIC.

Procedure for A549: (§2) Mammalian cell lines HepG2 (hepatic cells), A549 (epithelial cells), and MKN-28 (gastric cells) were used to measure the anti-proliferative properties of test compounds, as described elsewhere [28]. Cells were grown in Dulbecco’s Modified Eagle Medium (DMEM) (Gibco, Waltham, MA, USA) supplemented with 10% Fetal Bovine Serum (FBS) (Gibco, Waltham, MA, USA) and 1% penicillin/streptomycin (Gibco, Waltham, MA, USA) and maintained at 37 °C in 5% CO2. After harvesting, the cells were suspended in DMEM and 100 µL was added to the wells of 96-well plates. The test compounds were serially diluted in serum and antibiotic free DMEM, added to the monolayer of cells, and incubated at 37 °C in 5% CO2 for 24 hr. Percentage survival was calculated by comparison to DMSO-treated vehicle controls. Assays were carried out in triplicate.
Procedure for HepG2: as §2
Procedure for MKN-28: as §2

For the compound `CC(C)c1onc(-c2c(Cl)cccc2Cl)c1COc1ccc(C=Cc2cccc(C(=O)O)c2)c(Cl)c1` [GW4064, 3-[2-[2-Chloro-4-[[3-(2,6-dichlorophenyl)-5-(1-methylethyl)-4-isoxazolyl]methoxy]phenyl]ethenyl]benzoic acid], the Eukaryotic cell cytotoxicity came out at 16 µg/mL with A549, 8 µg/mL with MKN-28 and 4 µg/mL with HepG2. The MIC (usually the lowest concentration that inhibits growth of the organism) with Klebsiella pneumoniae (read-out: MIC) is more than 64 µg/mL; in the data set with Pseudomonas aeruginosa (read-out: MIC), more than 64 µg/mL; in the data set on MRSA MW2 [1] (setting [9]), 8 µg/mL (≈ 14.7 µM); in the data set on MRSA MW2 [1] (setting [11]) it was 4 to 8 µg/mL (≈ 7.37 to 14.7 µM); in data set [2] (BF2, read-out: MIC), 4 µg/mL (≈ 7.37 µM); in the data set on Enterobactor aerogens (setting [12]) it was more than 64 µg/mL. The MIC is 8 µg/mL (≈ 14.7 µM) with Enterococcus faecium (read-out: MIC); 8 µg/mL (≈ 14.7 µM) in [5] (BF4, read-out: MIC); more than 64 µg/mL with Acinetobacter baumannii (read-out: MIC); 4 µg/mL (≈ 7.37 µM) in data set [6] (BF1, read-out: MIC); 8 µg/mL (≈ 14.7 µM) in data set [7] (BF3, read-out: MIC). Moreover, the “Fractional Inhibitory Concentration (FIC) Index” value in the data set on MRSA-MW2 (with Doxycycline) was 2.06; with MRSA-MW2 (with Erythromycin), 1.0; in the data set with MRSA-MW2 (with Gentamycin), 0.5; in the data set on MRSA-MW2 (with Oxacillin), 1.0; with MRSA-MW2 (with Polymyxin B), 0.75. The MBC with MRSA MW2 [1] (MRSA MW2) and in the data set on MRSA MW2 [1] (setting [10]) was more than 64 µg/mL each time. For the same compound, in [3], the median post-infection survival worked out at 2 days. This compound also came in with a Z-Score in data set [4] of 3.28. In addition, the “cellular fluorescence (Sytox green uptake)” value with MRSA MW2 [8] was “no changes in cellular fluorescence”.

Turning to `CCCc1c(-c2ccc(O)cc2)nn(-c2ccc(O)cc2)c1-c1ccc(O)cc1` [PPT, 4,4′,4″-(4-Propyl-[1H]-pyrazole-1,3,5-triyl)trisphenol], the Eukaryotic cell cytotoxicity in the data set on A549 was determined as 16 µg/mL; in the data set on MKN-28, 8 µg/mL; in the data set with HepG2, 8 µg/mL. Further, the MIC is more than 64 µg/mL in the data set on Klebsiella pneumoniae (read-out: MIC); more than 64 µg/mL with Pseudomonas aeruginosa (read-out: MIC); 8 µg/mL (≈ 20.7 µM) in the data set with MRSA MW2 [1] (setting [9]); 8 µg/mL (≈ 20.7 µM) in the data set on MRSA MW2 [1] (setting [11]); 8 µg/mL (≈ 20.7 µM) in [2] (BF2, read-out: MIC); more than 64 µg/mL with Enterobactor aerogens (setting [12]). Besides, the MIC is 8 µg/mL (≈ 20.7 µM) in the data set with Enterococcus faecium (read-out: MIC); 8 µg/mL (≈ 20.7 µM) in [5] (BF4, read-out: MIC); more than 64 µg/mL with Acinetobacter baumannii (read-out: MIC); 8 µg/mL (≈ 20.7 µM) in [6] (BF1, read-out: MIC); 8 µg/mL (≈ 20.7 µM) in data set [7] (BF3, read-out: MIC). Besides, the “Fractional Inhibitory Concentration (FIC) Index” value with MRSA-MW2 (with Doxycycline) was found to be 0.5; in the data set on MRSA-MW2 (with Erythromycin), 0.75; in the data set with MRSA-MW2 (with Gentamycin) it was 1.0; in the data set with MRSA-MW2 (with Oxacillin) it was 1.0; with MRSA-MW2 (with Polymyxin B), 2.0. In the data set with MRSA MW2 [1] (setting [10]), the MBC (commonly the lowest tested concentration that kills the bacteria rather than only halting them) amounted to 32 µg/mL (≈ 82.8 µM). The median post-infection survival in [3] amounted to 2 days. The same compound showed a Z-Score in data set [4] of 5.54. In addition, the “cellular fluorescence (Sytox green uptake)” value with MRSA MW2 [8] is “increases in cellular fluorescence”.

On to `CN[C@H](CC(C)C)C(=O)N[C@H]1C(=O)N[C@@H](CC(N)=O)C(=O)N[C@H]2C(=O)N[C@H]3C(=O)N[C@H](C(=O)N[C@H](C(=O)O)c4cc(O)cc(O)c4-c4cc3ccc4O)[C@H](O)c3ccc(c(Cl)c3)Oc3cc2cc(c3O[C@@H]2O[C@H](CO)[C@@H](O)[C@H](O)[C@H]2O[C@H]2C[C@](C)(N)[C@H](O)[C@H](C)O2)Oc2ccc(cc2Cl)[C@H]1O` [Vancomycin], for which the MIC with Klebsiella pneumoniae was more than 64 µg/mL; with Pseudomonas aeruginosa, more than 64 µg/mL; against MRSA MW2 [1] (Staphylococcus aureus, MRSA, 18 h), 1 µg/mL (≈ 0.69 µM); in [2], 2 µg/mL (≈ 1.38 µM); in the data set on Enterobactor aerogens, more than 64 µg/mL; against Enterococcus faecium, 4 µg/mL (≈ 2.76 µM). In addition, the MIC in data set [5] is 2 µg/mL (≈ 1.38 µM); with Acinetobacter baumannii, more than 64 µg/mL; in [6] it was 2 µg/mL (≈ 1.38 µM); in data set [7] it was 2 µg/mL (≈ 1.38 µM). The same compound had an MBC against MRSA MW2 [1] (Staphylococcus aureus, MRSA) of 8 µg/mL (≈ 5.52 µM).
